Assay results published in US20070128265A1, “Regulation of cell proliferation and differentiation using topically applied peptides” (priority 2000, published 2007).

What was measured:
mammalian cells = conditions: U.S. Pat. Nos. 5,527,772, 5,840,690 and 6,066,618; agonists or antagonists of PTH and PTHrP; cited from earlier work
psoriatic lesion = assay: One patient with chronic psoriasis: topical PTH (1-34) followed by calcipotriene cream; assay type: in vivo
From the text: One patient with chronic psoriasis received topically PTH (1-34) for two months. […] The patient returned two weeks later and, on the lesion treated with PTH (1-34) and the placebo lesion, received topically calcipotriene cream. […] Therefore, the combination therapy of PTH (1-34) followed by calcipotriene or other activated vitamin D compounds can be an effective therapeutic approach for treating psoriasis.

epidermis = assay: Tritiated thymidine incorporation into epidermal DNA in SKH-1 hairless mice; assay type: in vivo
Description: SKH-1 hairless mice received topically daily for 60 days either 10 μg of PTH (1-34) formulated in Novasome A, PTH (7-34) formulated in Novasome A, or Novasome A without any PTH analog to serve as the control group. The animals received ^3H-tritiated thymidine for the evaluation of epidermal proliferation as previously described.

hair follicle cells = assay: BRDU staining of hair follicle cells in depilated C57 BL/6 mice; assay type: in vivo; conditions: 10 μg in 30 μl Novasome topically daily for seven days
Description: (§1) C57 BL/6 were purchased from Jackson Labs and were in their telogen state of hair development. The animals were depilated as previously described (1). Groups of six animals received daily a topical application of either 10 μg of PTH (1-34) in 30 μl of Novasome or their depilatated backs, 10 μg of PTH (7-34)/30 μl of Novasome, or 30 μl of Novasome. The animals were dosed daily for seven days. Macroscopic evaluation and tritiated thymidine and bromouridine analysis was made on day seven as previously described (1, 2, 3, 4).

hair follicles = assay: Macroscopic evaluation of hair cycle progression in depilated C57 BL/6 mice; assay type: in vivo; conditions: for hair growth progression (progression of hair follicles into anagen), macroscopic evaluation: 10 μg in 30 μl Novasome topically daily for seven days
Description: as §1

[1] = tested on: epidermis of psoriatic lesions; assay: Skin biopsies of psoriatic lesions: hemotoxilin and eosin staining, immunohistochemistry for PCNA and transglutaminase; assay type: in vivo, patients; conditions: treated lesions compared to placebo treated lesions, two months
psoriatic lesions = assay: Double blind placebo controlled trial in chronic psoriasis, clinical improvement of lesions; assay type: in vivo, patients; conditions: 20 μg/0.1 ml in Novasome topically, two months
From the text: Nine patients with chronic psoriasis were enrolled in a double blind placebo controlled trial. […] The percentage of clinical improvement of scaling, erythema, and induration for the lesion treated with placebo was 17.2, 15, and 30%, respectively. For the lesion treated with PTH (1-34), there was a marked improvement in scaling of 30.9%, erythema 34%, and induration 52%, respectively.

PTH (3-34): parathyroid hormone fragment (3-34), agonist of PTH and PTHrP (SEIQLMHNLGKHLNSMERVEWLRKKLQDVHNF; Parathyroid hormone; UniProt P01270 34-65, looked up, fragment)
effect on proliferation and differentiation of mammalian cells (mammalian cells): inhibit proliferation and enhance differentiation of mammalian cells

C=C1/C(=C\C=C2/CCC[C@]3(C)[C@@H]([C@H](C)/C=C/[C@@H](O)C4CC4)CC[C@@H]23)C[C@@H](O)C[C@@H]1O [calcipotriene, reference compound]
response of psoriatic lesion after two months of topical calcipotriene cream (psoriatic lesion; lesion pretreated two months with PTH (1-34) or with Novasome placebo): no significant improvement

PTHrP (7-34): parathyroid related peptide fragment (7-34), antagonist of PTH and PTHrP
effect on proliferation and differentiation of mammalian cells (mammalian cells): enhance the proliferation of mammalian cells

PTHrP (1-34): parathyroid related peptide fragment (1-34), agonist of PTH and PTHrP
effect on proliferation and differentiation of mammalian cells (mammalian cells): inhibit proliferation and enhance differentiation of mammalian cells

PTH (7-34): parathyroid hormone fragment (7-34), antagonist peptide; tested topically formulated in Novasome A liposomes (LMHNLGKHLNSMERVEWLRKKLQDVHNF; Parathyroid hormone Novasome A liposome formulation; UniProt P01270 38-65, looked up, fragment)
enhancement in DNA synthesis (proliferation) compared to the control group (epidermis; 10 μg topically daily for 60 days in Novasome, 3H-thymidine in the epidermis): more than two fold enhancement | BRDU staining of the hair follicles (hair follicle cells): increase in BRDU staining of the hair follicle | effect on proliferation and differentiation of mammalian cells (mammalian cells): enhance the proliferation of mammalian cells | hair growth progression (progression of hair follicles into anagen), macroscopic evaluation (hair follicles): increase in the progression of the hair follicles into their proliferative anagen state | increase in the anagen area (hair follicles; 10 μg topically daily for seven days, formulated in Novasome A): 155%

PTH (1-34): parathyroid hormone fragment (1-34), agonist peptide; tested topically formulated in Novasome A liposomes
PCNA staining in skin biopsies [1]: restoration of the PCNA staining in the basal layer | proliferation of the epidermis in skin biopsies [1]: marked decrease in the proliferation of the epidermis | transglutaminase staining in skin biopsies [1]: restoration of transglutaminase staining in the upper granular layer | percentage of clinical improvement of erythema (psoriatic lesions): 34% | percentage of clinical improvement of induration (psoriatic lesions): 52% | percentage of clinical improvement of scaling (psoriatic lesions): 30.9% | decrease in DNA synthesis (proliferation) compared to the control group (epidermis; 10 μg topically daily for 60 days in Novasome A, 3H-thymidine): 25% | BRDU staining of the hair follicles (hair follicle cells): demonstrated a decrease | response of psoriatic lesion (psoriatic lesion; topical PTH (1-34) for two months): minimal response | effect on proliferation and differentiation of mammalian cells (mammalian cells): inhibit proliferation and enhance differentiation of mammalian cells | hair growth progression (progression of hair follicles into anagen), macroscopic evaluation (hair follicles): decrease in hair growth progression
